One assay relates to B. subtilis 168. Nature of the assay: MIC of bacterial growth, macrodilution (Table 2). The assay is classed as cell-based. Conditions: Bacillus subtilis. The method, then: Bacterial strains and growth conditions. Luria-Bertani (LB) media (10 g/L tryptone, 10 g/L NaCl, 5 g/L yeast extract, pH 7.2) was used to grow B. subtilis 168, S. aureus FRI100, and P. aeruginosa K1115 strains. For P. aeruginosa PAO1 and K1119 strains and two E. coli BW25113 strains, M8 minimal media (241 mg/L MgSO4, 4 mg/L glucose, 5 mg/L casamino acids, 12.8 g/L Na2HPO4.7H2O, 3 g/L KH2PO4, and 0.5 g/L NaCl) was used. PYE media (2 g/L peptone, 1 g/L yeast extract, 0.8 mM MgSO4, and 0.5 mM CaCl2) was used for culturing C. crescentus cells at 30° C. All cultures were grown at 37° C., except for C. crescentus (30° C.). All cultures were grown while shaking at 200 rpm.
(§1) Determination of the minimum inhibitory concentration (MIC) of bacterial growth. The MIC of various organisms in liquid media was determined using the macrodilution method according to the NCCLS guidelines. For the starting inoculum, cultures were diluted to contain approximately 5×10^5 cells/mL in growth media. To create a two-fold dilution series for the macrodilution technique, each compound was added to the first culture tube (4 mL total volume) at the highest concentration. 2 mL of this culture was diluted into an equal volume of inoculated media (a two-fold dilution). The final volume for each culture was 2 mL.

The next assay has as its system A. baumannii. Nature of the assay: MIC of bacterial growth (Table 2). It is filed as cell-based. Conditions: Acinetobacter baumannii; A. baumannii clinical isolate (Table 2). The method, then: as §1
Another assay has as its system E. tarda. Nature of the assay: MIC of bacterial growth (Table 2). The settings on record: Edwardsiella tarda; E. tarda clinical isolate (Table 2). The assay is classed as cell-based. The method, then:
as §1

The next assay has as its system K. pneumoniae. Nature of the assay: MIC of bacterial growth (Table 2). The assay is classed as cell-based. Conditions: Klebsiella pneumoniae; K. pneumoniae clinical isolate (Table 2). The method, then: as §1
The next assay relates to M. morganii. Nature of the assay: MIC of bacterial growth (Table 2). The settings on record: Morganella morganii; M. morganii clinical isolate (Table 2). It is filed as cell-based. The method, then:
as §1

The next assay relates to S. boydii. Nature of the assay: MIC of bacterial growth (Table 2). It is filed as cell-based. Conditions: Shigella boydii; S. boydii clinical isolate (Table 2). The method, then: as §1
Another assay concerns S. typhimurium. Nature of the assay: MIC of bacterial growth (Table 2). Conditions: Salmonella enterica; S. typhimurium clinical isolate (Table 2). The assay is classed as cell-based. The method, then: as §1
The test system of the next assay is V cholera. Nature of the assay: MIC of bacterial growth (Table 2). It is filed as cell-based. Conditions: Vibrio cholerae. The method, then: as §1
Another assay relates to S. aureus FRI 100. Briefly: Minimum biofilm inhibitory concentration (bMIC). It is filed as cell-based, Staphylococcus aureus. Conditions: S. aureus FRI 100 biofilm. The method, then:
Determination of the minimum biofilm inhibitory concentration of growth (bMIC) and biofilm eradication concentration (MBEC). Overnight cultures of C. crescentus and S. aureus were grown and diluted 100-fold into appropriate nutrient media. Aliquots of the diluted suspension were transferred into wells of 96-well plates (150 μL/well). 2-fold serial dilutions were performed for compound-containing wells. For every experiment, three replicates for each compound concentration tested were included. After transferring aliquots of the suspension, the plates were closed with specialized lids that have protruding pins (Nunc STP System), and the plates were sealed using Parafilm®. The plates were incubated in a static incubator at 30° C. (C. crescentus) or 37° C. (S. aureus) for 24 hours. After the cells had formed biofilms on the surface of the pins, the pins were rinsed by dipping them in M2 (C. crescentus) or PBS (S. aureus) solutions. To rinse the pins, clean, sterile 96-well plates were used (aliquots of 200 μL/well); each rinse lasted 10 sec. After washing away planktonic cells loosely bound to biofilms, the pins were inserted into a 96-well plate that was pre-aliquoted with nutrient media containing antibiotics (2-fold dilutions, a final volume of 150 μL/well). The plates were sealed with Parafilm®, and incubated for 17 hours, and the bMIC was measured at the end of the incubation by visual inspection. […] The plates were sealed with Parafilm®, incubated for 24 hours, and the MBEC was measured at the end of the incubation by visual inspection.
Membrane-active compounds are also efficient at eradicating biofilm-associated cells (Table 2). […] To determine the efficacy of antibiotics against biofilms, the minimum biofilm inhibitory concentration (bMIC) and the minimum biofilm eradication concentration (MBEC) were measured. […] After 24 hours of exposure to compounds, the lowest concentration of antibiotic that inhibited planktonic cell growth in the wells (bMIC) was determined.

A further assay relates to Acinetobacter baumannii. Briefly: MIC of DCAP analogs, LB media, microdilution (CLSI). Conditions: microdilution (Table 6). The assay is classed as cell-based. The method, then: (§2) Luria-Bertani (LB) media (10 g/L tryptone, 10 g/L NaCl, 5 g/L yeast extract, pH 7.0) was used to grow all the strains represented in Tables 5 and 6. All the cultures were grown at 37° C. All the E. coli strains were grown while shaking at 200 rpm and the clinical pathogens were statically incubated.
(§3) For clinical pathogenic organisms including S. typhimurium, V. cholera, S. boydii, K pneumonia, E. aerogenes, A. baumannii, E. tarda, and M. morganii strains, liquid LB media in 96-well microplates (100 μL/well) and the microdilution method from the CLSI guidelines were used.
Background: Broth dilution looks for growth in wells or tubes with falling amounts of substance.

Another assay has as its system Edwardsiella tarda. Described as above. It is filed as cell-based. Conditions: microdilution (Table 6). The method, then: as §2, §3
The next assay relates to Enterobacter aerogenes. The description is as above. The assay is classed as cell-based. The settings on record: Klebsiella aerogenes, microdilution (Table 6). The method, then: as §2, §3
Another assay deals with Klebsiella pneumonia. The assay is described as above. It is filed as cell-based. The settings on record: Klebsiella pneumoniae, microdilution (Table 6). The method, then:
as §2, §3

The next assay has as its system Morganella morganii. The assay is described as above. Conditions: microdilution (Table 6). It is filed as cell-based. The method, then: as §2, §3
A further assay deals with Salmonella typhimurium. The description is as above. The settings on record: Salmonella enterica, microdilution (Table 6). It is filed as cell-based. The method, then: as §2, §3
A further assay relates to Shigella boydii. Described as above. The assay is classed as cell-based. The settings on record: microdilution (Table 6). The method, then: as §2, §3
The subject of a further assay is Vibrio cholera. The description is as above. The assay is classed as cell-based. Conditions: Vibrio cholerae. The method, then:
as §2, §3

As usually defined, the MIC is the lowest concentration found to suppress growth. As to `OCC(CO)(CO)NCC(O)Cn1c2ccc(Cl)cc2c2cc(Cl)ccc21` (stereo not shown) [DCAP, 2-((3-(3,6-dichloro-9H-carbazol-9-yl)-2-hydroxypropyl)amino)-2-(hydroxymethyl)propane-1,3-diol], the MIC is 32 µM with B. subtilis 168; 200 µM in the assay on A. baumannii; 200 µM in the assay on E. tarda; 100 µM in the assay on K. pneumoniae; 200 µM in the assay on M. morganii; 100 µM with S. boydii. The MIC with S. typhimurium was 50 µM; in the assay on V cholera, 100 µM; with Acinetobacter baumannii, 200 µM; with Edwardsiella tarda, 100 µM; in the assay on Enterobacter aerogenes, 200 µM; with Klebsiella pneumonia, 200 µM. Moreover, the MIC with Morganella morganii was found to be 200 µM; in the assay on Salmonella typhimurium, 100 µM; in the assay with Shigella boydii it was 100 µM; with Vibrio cholera, 50 µM. In the assay with S. aureus FRI 100, the bMIC is 100 µM.
Turning to `N#CC(C#N)=NNc1cccc(Cl)c1` [CCCP, carbonyl cyanide m-chlorophenyl hydrazone], the MIC in the assay with B. subtilis 168 was 10 µM. For the same compound, in the assay with S. aureus FRI 100, the bMIC worked out at 2.5 µM.

These data come from US10314816B2, “Antimicrobial compounds, compositions and methods of use thereof” (Wisconsin Alumni Research Foundation, priority 2012, dated 2019).
